5 compounds from patent US20240408216A1, “PROTEIN INHIBITOR OR DEGRADING AGENT, PHARMACEUTICAL COMPOSITION CONTAINING SAME AND PHARMACEUTICAL USE” (JING MEDICINE TECHNOLOGY (SHANGHAI) LTD., priority 2021, published 2024) can be followed below.

As usually defined, the IC50 is the concentration that inhibits the measured activity by half.

The subject of the first experiment is BaF3 (EGFR Del19/T790M/C797S). The experiment in a line: Cell proliferation IC50 assay (Cell Titer GLO), BaF3 DTC cells. It is filed as cell-based. The settings on record: Mus musculus, Ba/F3 EGFR-Del19/T790M/C797S, Table 5, 72 h. The method, then: (§1) IC50 of compounds in the present invention was determined by Cell Titer GLO reagent from Promega. The procedures are as follows:
(§2) Tumor cells were cultured in specified medium in an incubator at 37° C. and 5% CO2. The cells were passaged periodically. Cells at the logarithmic growth phase were collected for plating at a density of 2000-4000 cells/well. The next day, the compounds of the present invention were serially diluted and added to the cells, with DMSO being the negative control and the culture media without cells being the blank control. The plate was incubated in the incubator for 72 h. The cell viability assay was performed by adding the detection reagents to the cell culture media according to Cell Titer GLO reagent instructions and detecting luminescent signals on an EnVision microplate reader (PerkinElmer).
(§3) Inhibition of cell growth by the compounds of the present invention was plotted by Prism Graphpad software for statistically calculating the IC50 of the compound of the present invention.
In general terms: In ATP-based viability assays light output follows the ATP content of the culture.
For `CP(C)(=O)c1ccccc1Nc1nc(Nc2ccc(N3CCC(N4CCN(CCC#Cc5cccc6c5CN(C5CCC(=O)NC5=O)C6=O)CC4)CC3)c(Cl)c2)ncc1Cl` (stereo not shown) [Example E17], the half-maximal inhibitory concentration (IC50) amounted to 3.7 nM.
Take `COc1cc(N2CCC(N3CCN(CCCCCc4ccc5c(c4)CN(C4CCC(=O)NC4=O)C5=O)CC3)CC2)ccc1Nc1ncc(Cl)c(Nc2ccccc2P(C)(C)=O)n1` (stereo not shown) [Example C-5, reference compound]: the IC50 turned out to be 22.5 nM.
The same measure, in the same setting: under `CCc1cc(Nc2ncc(Cl)c(Nc3ccccc3P(C)(C)=O)n2)c(OC)cc1N1CCC(N2CCN(CCCc3cccc4c3CN(C3CCC(=O)NC3=O)C4=O)CC2)CC1` (stereo not shown) [Example E26] stands 8 nM; under `CCc1cc(Nc2ncc(Cl)c(Nc3ccccc3P(C)(C)=O)n2)c(OC)cc1N1CCC(N2CCN(CC#Cc3cccc4c3CN(C3CCC(=O)NC3=O)C4=O)CC2)CC1` (stereo not shown) [Example E25], 13.7 nM.
The same measure, in the same setting: under `COc1cc(N2CCC(N3CCN(CC#Cc4cccc5c4CN(C4CCC(=O)NC4=O)C5=O)CC3)CC2)ccc1Nc1ncc(Cl)c(Nc2ccccc2P(C)(C)=O)n1` (stereo not shown) [Example C-3, reference compound] stands 43.7 nM.

The next experiment concerns BaF3 (EGFR L858R/T790M/C797S). The experiment in a line: Cell proliferation IC50 assay (Cell Titer GLO), BaF3 LTC cells. The experiment is classed as cell-based. As to conditions: Mus musculus, Ba/F3 EGFR, Table 5, 72 h. Summed up:
(§4)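 Cells plated at 2000-4000 cells/well and treated the next day with serially diluted compound for 72 h at 37° C, 5% CO2. Viability read by CellTiter-Glo luminescence, normalised to DMSO and cell-free blank controls; IC50 fitted from growth inhibition curves.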
Take `CP(C)(=O)c1ccccc1Nc1nc(Nc2ccc(N3CCC(N4CCN(CCC#Cc5cccc6c5CN(C5CCC(=O)NC5=O)C6=O)CC4)CC3)c(Cl)c2)ncc1Cl` (stereo not shown) [Example E17]: the IC50 worked out at 15.5 nM.
`COc1cc(N2CCC(N3CCN(CCCCCc4ccc5c(c4)CN(C4CCC(=O)NC4=O)C5=O)CC3)CC2)ccc1Nc1ncc(Cl)c(Nc2ccccc2P(C)(C)=O)n1` (stereo not shown) [Example C-5, reference compound]: the IC50 amounted to 103 nM.
Still for that read-out and setting: the figure for `CCc1cc(Nc2ncc(Cl)c(Nc3ccccc3P(C)(C)=O)n2)c(OC)cc1N1CCC(N2CCN(CCCc3cccc4c3CN(C3CCC(=O)NC3=O)C4=O)CC2)CC1` (stereo not shown) [Example E26] is 53.5 nM; for `CCc1cc(Nc2ncc(Cl)c(Nc3ccccc3P(C)(C)=O)n2)c(OC)cc1N1CCC(N2CCN(CC#Cc3cccc4c3CN(C3CCC(=O)NC3=O)C4=O)CC2)CC1` (stereo not shown) [Example E25] it is 57.2 nM.
The same measure, in the same setting: under `COc1cc(N2CCC(N3CCN(CC#Cc4cccc5c4CN(C4CCC(=O)NC4=O)C5=O)CC3)CC2)ccc1Nc1ncc(Cl)c(Nc2ccccc2P(C)(C)=O)n1` (stereo not shown) [Example C-3, reference compound] stands 129 nM.

A further experiment relates to BaF3 (EGFR WT). The experiment in a line: Cell proliferation IC50 assay (Cell Titer GLO), BaF3 WT cells. It is filed as cell-based. The settings on record: Mus musculus, Ba/F3 EGFR, Table 5, 10 ng/ml EGF, 72 h. Summed up:
as §4
`CP(C)(=O)c1ccccc1Nc1nc(Nc2ccc(N3CCC(N4CCN(CCC#Cc5cccc6c5CN(C5CCC(=O)NC5=O)C6=O)CC4)CC3)c(Cl)c2)ncc1Cl` (stereo not shown) [Example E17]: the IC50 is 25.1 nM.
In the case of `COc1cc(N2CCC(N3CCN(CCCCCc4ccc5c(c4)CN(C4CCC(=O)NC4=O)C5=O)CC3)CC2)ccc1Nc1ncc(Cl)c(Nc2ccccc2P(C)(C)=O)n1` (stereo not shown) [Example C-5, reference compound], the IC50 is 1630 nM.
Compound `CCc1cc(Nc2ncc(Cl)c(Nc3ccccc3P(C)(C)=O)n2)c(OC)cc1N1CCC(N2CCN(CCCc3cccc4c3CN(C3CCC(=O)NC3=O)C4=O)CC2)CC1` (stereo not shown) [Example E26] gave an IC50 of 517 nM.
`CCc1cc(Nc2ncc(Cl)c(Nc3ccccc3P(C)(C)=O)n2)c(OC)cc1N1CCC(N2CCN(CC#Cc3cccc4c3CN(C3CCC(=O)NC3=O)C4=O)CC2)CC1` (stereo not shown) [Example E25]: the IC50 was found to be 1370 nM.
Compound `COc1cc(N2CCC(N3CCN(CC#Cc4cccc5c4CN(C4CCC(=O)NC4=O)C5=O)CC3)CC2)ccc1Nc1ncc(Cl)c(Nc2ccccc2P(C)(C)=O)n1` (stereo not shown) [Example C-3, reference compound] yielded an IC50 of 587 nM.

The test system of the next experiment is BaF3 patent. Description: Cell proliferation IC50 assay (Cell Titer GLO), BaF3 parental cells. As to conditions: Mus musculus, Table 5, 10 ng/ml mIL3, 72 h. The experiment is classed as cell-based. As to the method:
as §1, §2, §3
Consider `CP(C)(=O)c1ccccc1Nc1nc(Nc2ccc(N3CCC(N4CCN(CCC#Cc5cccc6c5CN(C5CCC(=O)NC5=O)C6=O)CC4)CC3)c(Cl)c2)ncc1Cl` (stereo not shown) [Example E17], for which the IC50 stood at 23.4 nM.
Turning to `COc1cc(N2CCC(N3CCN(CCCCCc4ccc5c(c4)CN(C4CCC(=O)NC4=O)C5=O)CC3)CC2)ccc1Nc1ncc(Cl)c(Nc2ccccc2P(C)(C)=O)n1` (stereo not shown) [Example C-5, reference compound], the IC50 turned out to be 570 nM.
On the same count and under the same terms, under `CCc1cc(Nc2ncc(Cl)c(Nc3ccccc3P(C)(C)=O)n2)c(OC)cc1N1CCC(N2CCN(CCCc3cccc4c3CN(C3CCC(=O)NC3=O)C4=O)CC2)CC1` (stereo not shown) [Example E26] stands 546 nM.
Same read-out and setting: under `CCc1cc(Nc2ncc(Cl)c(Nc3ccccc3P(C)(C)=O)n2)c(OC)cc1N1CCC(N2CCN(CC#Cc3cccc4c3CN(C3CCC(=O)NC3=O)C4=O)CC2)CC1` (stereo not shown) [Example E25] stands 1210 nM; under `COc1cc(N2CCC(N3CCN(CC#Cc4cccc5c4CN(C4CCC(=O)NC4=O)C5=O)CC3)CC2)ccc1Nc1ncc(Cl)c(Nc2ccccc2P(C)(C)=O)n1` (stereo not shown) [Example C-3, reference compound], 475 nM.

The subject of another experiment is A431. The experiment in a line: Cell proliferation IC50 assay (Cell Titer GLO), A431 cells. The experiment is classed as cell-based. As to conditions: Homo sapiens, A-431; Table 5; A431, 72 h; read-out: A431 IC50. Summed up:
as §4
`CP(C)(=O)c1ccccc1Nc1nc(Nc2ccc(N3CCC(N4CCN(CCC#Cc5cccc6c5CN(C5CCC(=O)NC5=O)C6=O)CC4)CC3)c(Cl)c2)ncc1Cl` (stereo not shown) [Example E17]: the IC50 was determined as 283 nM.
For the compound `COc1cc(N2CCC(N3CCN(CCCCCc4ccc5c(c4)CN(C4CCC(=O)NC4=O)C5=O)CC3)CC2)ccc1Nc1ncc(Cl)c(Nc2ccccc2P(C)(C)=O)n1` (stereo not shown) [Example C-5, reference compound], the IC50 came out at 1230 nM.
The same measure, in the same setting: under `CCc1cc(Nc2ncc(Cl)c(Nc3ccccc3P(C)(C)=O)n2)c(OC)cc1N1CCC(N2CCN(CCCc3cccc4c3CN(C3CCC(=O)NC3=O)C4=O)CC2)CC1` (stereo not shown) [Example E26] stands 1090 nM; under `CCc1cc(Nc2ncc(Cl)c(Nc3ccccc3P(C)(C)=O)n2)c(OC)cc1N1CCC(N2CCN(CC#Cc3cccc4c3CN(C3CCC(=O)NC3=O)C4=O)CC2)CC1` (stereo not shown) [Example E25], 1260 nM; under `COc1cc(N2CCC(N3CCN(CC#Cc4cccc5c4CN(C4CCC(=O)NC4=O)C5=O)CC3)CC2)ccc1Nc1ncc(Cl)c(Nc2ccccc2P(C)(C)=O)n1` (stereo not shown) [Example C-3, reference compound], 1210 nM.
